# Experimental data taken from patent publication US11103488B2, “Methods of treating autoimmune, respiratory and inflammatory disorders by inhalation of roflumilast N-oxide” (Incozen Therapeutics Pvt. Ltd., priority 2013, dated 2021).
# Where two headings read alike, the source gives them in different places.
# What was measured:
# [1] = Lung microsome metabolic stability, human; type: in vitro ADME; settings: 1 μM test item, 60 minutes, NADPH
# Protocol: (§1) Metabolic stability studies were conducted using rat, dog and human lung microsomes. The protocol for the studies with rat, dog, and human lung microsomes (from Xenotech, USA) is provided below.
# (§2) 0.4 mg protein was preincubated with 2 mM NADPH (cofactor) in phosphate buffer (pH˜7.4) for 15 minutes at […] and then added with 1 μM test item and incubated further for 60 minutes in triplicate. The reaction mixture was terminated with methanol containing an internal standard and centrifuged further to analyze the test item remaining in the supernatant by LC-MS/MS. The percent parent compound remaining was calculated in comparison with similar samples terminated at 0 minutes.
# [2] = Lung microsome metabolic stability, dog; type: in vitro ADME; settings: dog lung microsomes, 1 μM test item, 60 minutes, NADPH
# Protocol: as §1, §2
# [3] = roflumilast n = 4438; count, second figure in brackets; cited from earlier work
# [4] = Lung microsome metabolic stability, rat; type: in vitro ADME; settings: rat lung microsomes, 1 μM test item, 60 minutes, NADPH
# Protocol: as §1, §2
# [5] = tested on: macrophage infiltration; assay: Acute cigarette smoke induced cell infiltration, macrophages; type: in vivo, female Balb/c mice; settings: for Percent inhibition in macrophage infiltration: oral, day 1 to day 4
# Protocol: (§3) Animals were acclimatized for seven days prior to the start of the experiment. The animals were randomly distributed to various groups based on their body weight. For oral administration of roflumilast and for intranasal administration of roflumilast N-oxide, roflumilast or roflumilast N-oxide were prepared as a suspension in a suitable vehicle. On day 1, mice were administered roflumilast N-oxide or roflumilast and after 1 hour, the animals were placed in a whole body exposure box. On day 1 and day 2, the mice were exposed to the mainstream smoke of 6 cigarettes, and 8 cigarettes on day 3 and day 4. Exposure to the smoke of each cigarette lasted for 10 minutes (cigarettes were completely burned in the first two minutes and followed by an air flow with animal ventilator, then 20 minutes exposure to fresh room air). After every second cigarette an additional break of 20 minutes with exposure to fresh room air was conducted. Control animals were exposed to room air chamber. From day 1 to day 4, the animals were administered roflumilast N-oxide or roflumilast. On day 5, 24 hours after the last cigarette smoke (CS) exposure, the animals were exsanguinated under anaesthesia, the trachea were cannulated and the lungs were lavaged with 0.5-ml aliquots of heparinised PBS (1 unit/ml) four times through tracheal cannula (total volume 2 ml). Bronchioalveolar (BAL) collected was stored at 2-8° C. until assayed for total cell and differential leukocyte count. BAL fluid was centrifuged (500×g for 10 minutes) and the resulting cell pellet was resuspended in 0.5 ml of heparinised saline. The total number of white blood cells was determined in BAL fluid and adjusted to 1×10^6 cell/ml. Differential cell count was calculated manually by diff-quick staining. Forty microliters of the cell suspension was centrifuged using cytospin 3 to prepare a cell smear. The cell smear was stained with a blood staining solution for differentiation and microscopically observed to identify cell type according to their morphological characteristics. The number of each cell type among 300 white blood cells in the cell smear were determined and expressed as a percentage, and the number of neutrophils and macrophages in each BAL fluid were calculated.
# (§4) Roflumilast and roflumilast N-oxide as a suspension in polysorbate 80 (1% v/v) and methyl cellulose (MC) (0.5% w/v) were used for oral and intranasal administration respectively.
# [6] = tested on: neutrophil infiltration (LPS-induced neutrophilia in BALF); assay: Lipopolysaccharide (LPS) induced pulmonary neutrophilia; type: in vivo, female Sprague-Dawley rat; settings: for ED50: Rattus norvegicus, Neutrophil, read-out: 50% inhibition (ED50) dose, neutrophil infiltration
# Protocol: Roflumilast was prepared as a suspension in a suitable vehicle for oral administration. For intratracheal administration, roflumilast or roflumilast N-oxide was prepared as a dry powder mixture and administered by using a dry powder Insufflator (Penn-Century, USA) Animals were anaesthetized with ketamine and LPS solution was administered intratracheally one hour after roflumilast (at a dose of 0.3, 1, 3, and 10 mg/kg orally), or 30 minutes after roflumilast (at a dose of 10, 30 and 100 μg/kg i.t) or roflumilast N-oxide administration (at a dose of 10, 30 and 100 μg/kg, i.t). 6 hours after LPS instillation, animals were exsanguinated under anaesthesia, and then trachea were cannulated and the lungs were lavaged with 5-ml aliquots of heparinised PBS (1 unit/ml) four times through tracheal cannula (total volume 20 ml). BAL (bronchoalveolar lavage) fluid was stored at 2-8° C. until assayed for total cell and differential leukocyte count. Bronchioalveolar fluid was centrifuged (500×g for 10 minutes) and the resulting cell pellet was resuspended in 0.5 ml of heparinized saline. The total number of white blood cells were determined in BAL fluid using a blood cell counter and were adjusted to 1×10^6 cell/ml. Differential cell count was calculated manually. One hundred microliters of the cell suspension was centrifuged using cytospin 3 to prepare a cell smear. The cell smear was stained with a blood staining solution for differentiation and slides were microscopically observed to identify eosinophil according to their morphological characteristics. The number of each cell type among 300 white blood cells in the cell smear was determined and expressed as a percentage. The total number of neutrophils in each BAL fluid was calculated.
# Roflumilast and roflumilast N-oxide were administered intratracheally (i.t) at doses of 100, 30, and 10 μg/kg as 1:200; 1:500; and 1:1000 drug:lactose blends, respectively.
# [7] = 7-day repeat dose safety study; type: in vivo, Wistar Rats
# Protocol: In order to determine the safety of roflumilast N-oxide by inhalation compared to roflumilast by oral administration, a 7- and 14-day repeat dose safety study was conducted according to the protocol given in Table 5 below.
# [8] = tested on: neutrophil infiltration; assay: Acute cigarette smoke induced cell infiltration, neutrophils; type: in vivo, female Balb/c mice; settings: for Percent inhibition in neutrophil infiltration: oral, day 1 to day 4
# Protocol: as §3, §4
compound,measurement,setting,value
O=C(Nc1c(Cl)cncc1Cl)c1ccc(OC(F)F)c(OCC2CC2)c1 [Roflumilast],"Percent Parent Compound Remaining, Human Non Smoker",[1]; human non smoker lung microsomes,99.8%
same,"Percent Parent Compound Remaining, Human Smoker",[1]; human smoker lung microsomes,98.8%
same,"Percent Parent Compound Remaining, Dog",[2],97.4%
same,AEs: Back pain,[3],142 (3.2)
same,AEs: Decreased appetite,[3],91 (2.1)
same,AEs: Diarrhoea,[3],420 (9.5)
same,AEs: Dizziness,[3],92 (2.1)
same,AEs: Headache,[3],195 (4.4)
same,AEs: Influenza,[3],124 (2.8)
same,AEs: Insomnia,[3],105 (2.4)
same,AEs: Nausea,[3],209 (4.7)
same,AEs: Weight loss,[3],331 (7.5)
same,"Percent Parent Compound Remaining, Rat",[4],97.1%
same,ED50,"[5]; Mus musculus, Macrophage, oral administration, read-out: 50% inhibition (ED50) dose, macrophage infiltration",3.5 mg/kg
same,Percent inhibition in macrophage infiltration,[5]; 1 mg/kg (b.i.d. per FIG. 4),22.2%
same,Percent inhibition in macrophage infiltration,[5]; 3 mg/kg (b.i.d. per FIG. 4),51.00%
same,Percent inhibition in macrophage infiltration,[5]; 10 mg/kg (b.i.d. per FIG. 4),69.11%
same,ED50,"[6]; inhaled or nasal, intratracheal administration",0.026 mg/kg
same,ED50,[6]; oral administration,1.8 mg/kg
same,Percent inhibition in neutrophil infiltration,"[6]; intratracheal dry powder, 10 μg/kg, 30 minutes before LPS",31.76%
same,Percent inhibition in neutrophil infiltration,"[6]; intratracheal dry powder, 30 μg/kg, 30 minutes before LPS",60.47%
same,Percent inhibition in neutrophil infiltration,"[6]; intratracheal dry powder, 100 μg/kg, 30 minutes before LPS",64.40%
same,Percent inhibition in neutrophil infiltration,"[6]; oral, 0.3 mg/kg, one hour before LPS, BAL 6 hours after LPS",−7.89%
same,Percent inhibition in neutrophil infiltration,"[6]; oral, 1 mg/kg, one hour before LPS, BAL 6 hours after LPS",43.46%
same,Percent inhibition in neutrophil infiltration,"[6]; oral, 3 mg/kg, one hour before LPS, BAL 6 hours after LPS",68.02%
same,Percent inhibition in neutrophil infiltration,"[6]; oral, 10 mg/kg, one hour before LPS, BAL 6 hours after LPS",92.21%
same,MORTALITY,"[7]; Oral, 10 mg/Kg/day, 7 days",1M animal died on day 7
same,Multiple of ED50 at which toxic,"[7]; Wistar, rat, in vivo, 7 days",5.5 fold
same,Overall safety in repeat dose study,"[7]; rat, in vivo, po, 10 mg/kg",showed significant toxicity
same,CLINICAL CHEMISTRY,"[7]; rat, in vivo, po, 10 mg/kg/day","Yes, reduced serum"
same,CLINICAL SIGNS,"[7]; rat, in vivo, po, 10 mg/kg/day",Abnormal clinical
same,GROSS PATHOLOGY,"[7]; rat, in vivo, po, 10 mg/kg/day","Yes, treatment related"
same,HEMATOLOGY,"[7]; rat, in vivo, po, 10 mg/kg/day","Yes, elevated WBC"
same,ED50,"[8]; Mus musculus, Neutrophil, oral administration, read-out: 50% inhibition (ED50) dose, neutrophil infiltration",1.75 mg/kg
same,Percent inhibition in neutrophil infiltration,[8]; 1 mg/kg (b.i.d. per FIG. 4),70.85%
same,Percent inhibition in neutrophil infiltration,[8]; 3 mg/kg (b.i.d. per FIG. 4),73.69%
same,Percent inhibition in neutrophil infiltration,[8]; 10 mg/kg (b.i.d. per FIG. 4),83.01%
